Experimental data published in ChEMBL document CHEMBL3507680, “University of Dundee, Gates Library screen for HepG2 cell viability”.

experiment: Human HepG2 cell viability assay in 384 well format; format: toxicity, cell-based; design: dose 125 nL, time 70.5 hour; cytotoxicity at 70.5 h: concentration not given beside the values; conditions: HepG2 cells, read-out: Inhibition

| SMILES | cytotoxicity at 70.5 h [%] |
| --- | --- |
| Cc1csc(CNC(=O)NCC(O)c2ccc(F)c(F)c2)n1 (stereo not given) | 10.8 |
| O=C(NCC1(N2CCOCC2)CCSC1)Nc1cn[nH]c1 (stereo not given) | -10.2 |
| Cc1nc(CCNC(=O)NCC(O)c2cccc(Cl)c2)cs1 (stereo not given) | -7.03 |
| CCN(Cc1ccco1)C(=O)NCc1nnc2n1CCCCC2 | 5.47 |
| O=C(CN1C(=O)c2ccccc2CS1(=O)=O)c1ccccc1 | -6.1 |
| CC(=O)c1cccc(OCCCC(=O)N(C)CC(N)=O)c1 | -7.52 |
| Cc1cc(S(=O)(=O)N2CCCN3CCCC3C2)ccc1F (stereo not given) | -9.81 |
| Cc1cc(CNC(=O)NCCOc2ccc(F)c(F)c2)on1 | -6.89 |
| NC(=O)c1cccc(CNC(=O)NCCOc2ccc(F)c(F)c2)c1 | -2.9 |
| CN(Cc1ccco1)Cc1ccccc1CNC(=O)c1cnc[nH]1 | 13.3 |
| COc1ccccc1OCC(=O)NS(=O)(=O)c1ccc(F)cc1F | -8.29 |
| Nc1ccnc(CNc2cc(F)ccc2OCC2CCCO2)n1 (stereo not given) | -9.07 |
| Fc1ccc(OCC2CCCO2)c(NCc2noc(C3CC3)n2)c1 (stereo not given) | -7.27 |
| COc1ccc(F)cc1C(=O)Nc1nnc(C)s1 | 6.71 |
| CCOC(=O)NC(CNC(=O)c1cc(Cl)ccn1)CC(C)C (stereo not given) | 5.7 |
| CCOC(=O)NC(CNC(=O)c1cccnc1SC)CC(C)C (stereo not given) | 8.28 |
| CCOC(=O)NC(CNC(=O)c1cccc(C)n1)CC(C)C (stereo not given) | 7.69 |
| CC(C)c1cc(C(=O)N2CCN(Cc3ccco3)CC2)n[nH]1 | 32.7 |
| O=C(NCCNc1ncccn1)c1cnc(-c2ccccc2)nc1 | -2.38 |
| CCS(=O)(=O)NCCNC(=O)c1cnc(-c2ccccc2)nc1 | -8.98 |
| N#Cc1ccc(CNC(=O)NC2CCN(CC(F)(F)F)C2)cc1 (stereo not given) | -5.15 |
| c1ccc(NCc2ccc(Cn3ccnc3)cc2)nc1 | 41.7 |
| Cc1cc(C(=O)Nc2cccn(Cc3ccc(F)cc3)c2=O)no1 | 0.798 |
| CC(C)Nc1cccc(CNC(=O)N2CCCC2)c1 | -5.5 |

| SMILES | cytotoxicity at 70.5 h [%] |
| --- | --- |
| COC(=O)CN(C(=O)c1ccc(-n2ccnc2)cc1)C1CC1 | -1.73 |
| COCCN(CCC#N)Cn1cc(Cl)cn1 | -2.01 |
| COCC(C)N(C)C(=O)c1ccc2nncn2c1 (stereo not given) | -2.4 |
| CCc1cc(N2CCCC(c3noc(CC)n3)C2)ncn1 (stereo not given) | -5.13 |
| Cn1cc(S(=O)(=O)NC(=O)C2(c3ccccc3)CCC2)cn1 | -4.68 |
| CCOC1CCN(C(=O)c2csc(S(N)(=O)=O)c2)CC1 | -4.71 |
| COCC(=O)Nc1ccc(Sc2nncn2C)c(Cl)c1 | 10.4 |
| Cn1cnnc1Sc1ccc(NC(=O)C2CC2)cc1Cl | -9.39 |
| Cc1cccc(C2(C(=O)NS(=O)(=O)c3cnn(C)c3)CCCC2)c1 | -1.9 |
| CSCC(C)(O)CNc1cccc(F)c1C#N (stereo not given) | -15.5 |
| Fc1ccc(OCCCN2CC(n3cccn3)C2)cc1 | -8.19 |
| CCc1nc(C2CCCN(c3ncc(Br)cn3)C2)no1 (stereo not given) | -14.4 |
| CCn1nc(C)c(S(=O)(=O)Nc2ccccc2C(=O)OC)c1C | 11.2 |
| NS(=O)(=O)c1cc(C(=O)N2CCCCC2)cs1 | -4.34 |
| CN1CC(Nc2nc3c(cnn3C(C)(C)C)c(=O)[nH]2)CCC1=O (stereo not given) | -2.42 |
| CN(C)C(=O)c1ccc(OC2CCOCC2)cc1 | -15.1 |
| C[S+]([O-])c1ccc(NC(=O)Cc2cccnc2)cc1F (stereo not given) | 11.1 |
| CCOC1CCCN(C(=O)c2[nH]nc(C3CC3)c2Br)C1 (stereo not given) | -6.37 |
| CCOC1CCCN(C(=O)c2[nH]nc(C(C)C)c2Br)C1 (stereo not given) | 11.3 |
| COc1ccccc1C(C)(C)NCc1ccc(C)o1 | -5.83 |
| COc1ccnc(NCC2CN(C3CC3)CCO2)n1 (stereo not given) | 10.1 |
| CN(Cc1cscn1)C1CCN(C(=O)OC(C)(C)C)CC1 | 29.5 |
| Cc1ncsc1C(=O)NCCNc1cnccn1 | -3.47 |
| CC(C)(C)c1ncc(C(=O)NCCn2ccnc2)s1 | 24.5 |

| SMILES | cytotoxicity at 70.5 h [%] |
| --- | --- |
| Cc1nc(C(C)(C)C)sc1C(=O)NCCn1cccn1 | -0.966 |
| CC(C)CCNC(=O)c1ccc(Cl)c(NS(C)(=O)=O)c1 | -4.83 |
| CCN1CCN(c2ccc(C(=O)NC(C)C(=O)N(C)C)cc2)CC1 (stereo not given) | -4.6 |
| CC(C)CS(=O)(=O)CC(=O)NC(C)(C)c1cccc(F)c1 | 6.38 |
| Cc1cccc(C(C)(C)NC(=O)CS(=O)(=O)CC(C)C)c1 | -4.98 |
| Cc1nn(C)c(C)c1NC(=O)CNc1ccc(F)c(C(F)(F)F)c1 | -2.51 |
| CS(=O)(=O)CCN1CCC(=Cc2ccccc2)CC1 | -3.57 |
| CC(NC(=O)c1cccs1)C(=O)NS(=O)(=O)c1cccc(C#N)c1 (stereo not given) | 2.5 |
| CC(NC(=O)c1cccs1)C(=O)NS(=O)(=O)Cc1ccc(C#N)cc1 (stereo not given) | 4.04 |
| Cc1ccccc1C1(CN)CCCCC1 | 10.6 |
| Cc1ccccc1C1(CN)CCOCC1 | -6.58 |
| Cc1nn(C)c(C)c1CCC(=O)N1CCc2sccc2C1 | 23.2 |
| CN(C)C(=O)c1cccc(C[S+]([O-])CC(=O)NC2CCCC2)c1 (stereo not given) | 5.53 |
| Cn1ccc(C(=O)N(CC(F)(F)F)c2cccc(Cl)c2)cc1=O | 11.6 |
| O=C(C1COc2ccccc2C1)N(CCO)Cc1ccccc1 (stereo not given) | -1.94 |
| Cc1nn(C)c(C)c1CCC(=O)NCc1cccnc1OC1CCCC1 | -3.92 |
| Cc1nc(C)c(CC(=O)NCc2cccnc2OC2CCCC2)c(=O)[nH]1 | -4.62 |
| CCC(C)(C)NC(=O)CN(Cc1cccc(O)c1)C1CCC(O)CC1 (stereo not given) | -4.94 |
| CC(C(=O)Nc1ccc2ccccc2c1)N1CCC(n2ccnc2)CC1 (stereo not given) | -4.02 |
| COc1ccc(Cl)cc1-c1cc(NC(=O)C2CNC(=O)N2)[nH]n1 (stereo not given) | 1.69 |
| Cc1cnn(CC2CCCCN2C(=O)c2sccc2C#N)c1 (stereo not given) | -4.1 |
| CCCc1noc(CNc2cc(C[S+](C)[O-])ccc2Cl)n1 (stereo not given) | -3.29 |
| Cc1cccc(C2(O)CCN(C(=O)c3ccc(N(C)C)cc3)CC2)c1C | 9.92 |
| CN(C)C(=O)C1CN(Cc2ccc(C#N)cc2)c2ccccc2O1 (stereo not given) | 4.19 |

| SMILES | cytotoxicity at 70.5 h [%] |
| --- | --- |
| CCOc1ccc(CN2C(=O)CC(C)(C(C)C)C2=O)nc1 (stereo not given) | 0.245 |
| CC1CN(C)c2ccccc2CN1C(=O)NCc1ccon1 (stereo not given) | -0.0778 |
| CS(=O)(=O)NCCCNCc1cc(F)ccc1Br | -2.01 |
| Cc1noc(C)c1CNC(=O)N1Cc2ccccc2N(C)CC1C (stereo not given) | 7.21 |
| Cc1cc(CN2CCCC(NS(C)(=O)=O)C2)ccc1-n1cncn1 (stereo not given) | 11.7 |
| Cc1cc(N2CCCC(OC(=O)CCN3CCCC3=O)C2)nc(C)n1 (stereo not given) | -5.43 |
| Clc1ccc(CNc2ccc(Cl)cn2)cc1 | -9.29 |
| Cc1ccsc1CNC(=O)CSc1nnc[nH]1 | -11.1 |
| Cc1cccnc1NC(=O)C1CCN(C(=O)C(C)C)CC1 | -19.2 |
| CN1CCN(c2ccc(NC(=O)c3cccs3)c(C(F)(F)F)c2)CC1 | -9.41 |
| Cc1noc(C)c1CCC(=O)N(C)C(C)c1cccs1 (stereo not given) | -11.3 |
| COc1ccc(C(C)Nc2ncc(C(N)=O)cc2Cl)c(OC)c1 (stereo not given) | -4.47 |
| CCn1ccc2cc(NC(=O)CC3CCCO3)ccc21 (stereo not given) | -6.31 |
| Cc1nc(C2(NCc3c(C)nn(C)c3N3CCOCC3)CCC2)no1 | 10.7 |
| CCOCCN1CCN(CC(O)c2cc(Cl)ccc2Cl)CC1 (stereo not given) | -5.82 |
| Cc1nn(C)cc1C(C)Nc1ncc(C(N)=O)cc1Cl (stereo not given) | -5.7 |
| Cc1cc(CS(=O)(=O)NC2CCCCC2)on1 | -15.3 |
| COc1ccc(Br)cc1CCC(=O)N1CCCC(O)C1 (stereo not given) | -5.19 |
| COc1ccc(Br)cc1CCC(=O)N1CCSCC1 | 8.26 |
| COc1ccc(Br)cc1CCC(=O)N1CCCC1 | -0.161 |
| COc1cc(C)c(NC(=O)CCn2cccc2)cc1OC | -6.6 |
| Cc1cccnc1C(NC(=O)CNC(=O)c1ccoc1C)C(C)C (stereo not given) | 3.13 |
| CN(c1ccc(CNc2ccc(Cl)cn2)cc1)S(C)(=O)=O | -4.71 |
| Cc1ccc(C(=O)N2CC(C(N)=O)O[C@H](C)C2)c(F)c1 (stereo not given in full) | -0.939 |

| SMILES | cytotoxicity at 70.5 h [%] |
| --- | --- |
| CCCS(=O)(=O)N1CCN(C(=O)CO)CC1 | -6.95 |
| COc1cc(Cl)c(NC(=O)NCCn2cccc2)cc1OC | -4.58 |
| O=C(CO)N1CCN(S(=O)(=O)CCCF)CC1 | 3.01 |
| CCc1nn(C)c(CC)c1CNC(=O)Nc1cccc2c1CCN2C | -0.865 |
| CN1CCN(c2ccc(NC(=O)c3ccoc3)c(C(F)(F)F)c2)CC1 | -7.05 |
| COCCCC(=O)N(C)c1ccc(F)c(Cl)c1 | -8.74 |
| Cc1ccc(C(=O)N2CC(C(N)=O)O[C@H](C)C2)c(C)c1 (stereo not given in full) | 1.19 |
| CC(C)C(=O)NS(=O)(=O)c1ccc2c(c1)N(C)CCC2 | -8.04 |
| COc1ccc(C2CCCN2C(=O)c2ccnc(NC3CC3)c2)cc1 (stereo not given) | 6.42 |
| CCN(C(=O)CCc1ccccc1)C1CC(=O)NC1=O (stereo not given) | 0.716 |
| CC(NCc1ccc(OCc2nccn2C)cc1)c1cccnc1 (stereo not given) | -9.04 |
| COCCNC(=O)Nc1ccc(-c2nc(C(C)C)no2)cc1 | -6.61 |
| CC(C)OC(=O)CNC(=O)Nc1ccc(-c2nc(C(C)C)no2)cc1 | 2.82 |
| Cc1nnc2n1CCN(Cc1nc3c(F)cccc3[nH]1)C2 | -9.16 |
| CS(=O)(=O)N1CCCN(c2nccn3cnnc23)CC1 | -6.97 |
| CCc1cnc(NC(=O)NC2CCN(C)CC2)s1 | 10.3 |
| c1csc(N2CCCN(c3nccn4cnnc34)CC2)n1 | 3.4 |
| O=C(NCc1ccncc1)N1CC(Cc2ccccc2F)C1 | -5.27 |
| COc1cc(-n2cccc2)c(Cl)cc1C(N)=O | -3.56 |
| CC(C)CS(=O)(=O)NC(=O)c1ccc2c(c1)ncn2C | -4.45 |
| Cn1cnc2cc(C(=O)NS(=O)(=O)CC3CCCC3)ccc21 | 0.122 |
| CCn1cc(CNC2CCN(c3c(F)cccc3F)C2)cn1 (stereo not given) | -0.658 |
| CC(CS(C)(=O)=O)N(C(=O)CCc1cccc(F)c1)C1CC1 (stereo not given) | 12.6 |
| COc1c(CNC2(c3noc(C)n3)CCC2)c(C)nn1C | -7.32 |
